Test results from US4783528A, “Steroidal lariat ethers” (University of Miami (Department of Chemistry), priority 1987, dated 1988).

Key:
[1] = Cation binding constant (log KS) for K+ in anhydrous methanol at 25° C.; settings: decadic (log10) logarithm of equilibrium constant lariat ether + cation = complex
Procedure: (§1) As a result, only the macroring itself is expected to provide cation binding sites.
(§2) ^a Binding constants determined in anhydrous methanol solution at
(§3) 25° C. as described in the articles by Dishong et al., and Schultz
(§4) Notes. a. Binding constants determined in anhydrous methanol solution at 25° C. as described in the articles by Dishong et al., and Schultz et al. referred to above.
(§5) The binding constant, usually referred to as KS, is the equilibrium constant for the reaction: lariat ether + cation .revreaction. complex. The values in the table are expressed as decadic (log10) logarithms.

[2] = Cation binding constant (log KS) for Na+ in anhydrous methanol at 25° C.; settings: decadic (log10) logarithm of equilibrium constant lariat ether + cation = complex
Procedure: as §1, §2, §3, §4, §5

Compound	Cation Binding Constants (log KS), K^+ [1]	Cation Binding Constants (log KS), Na^+ [2]
CC(C)CCC[C@@H](C)[C@H]1CC[C@H]2[C@@H]3CC[C@H]4C[C@@H](OC(=O)CN5CCOCCOCCOCCOCC5)CC[C@]4(C)[C@H]3CC[C@]12C [Compound 6, Cholestanyl (4-aza-15-crown-5) acetate]	4.03	4.12
CC(C)CCC[C@@H](C)[C@H]1CC[C@H]2[C@@H]3CC=C4C[C@@H](OC(=O)N5CCOCCOCCOCCOCCOCC5)CC[C@]4(C)[C@H]3CC[C@]12C [Compound 9, N-(Cholesteryloxycarbonyl)aza-18-crown-6]	1.78	2.07
CC(C)CCC[C@@H](C)[C@H]1CC[C@H]2[C@@H]3CC=C4C[C@@H](OC(=O)CN5CCOCCOCCOCCOCCOCC5)CC[C@]4(C)[C@H]3CC[C@]12C [Compound 5, Cholesteryl (4-aza-18-crown-6) acetate]	5.75	4.56
CC(C)CCC[C@@H](C)[C@H]1CC[C@H]2[C@@H]3CC=C4C[C@@H](OC(=O)N5CCOCCOCCOCCOCC5)CC[C@]4(C)[C@H]3CC[C@]12C [Compound 8, N-(Cholesteryloxycarbonyl)aza-15-crown-5]	< 1.5	< 1.5
Cholestanyl (4-aza-18-crown-6)acetate [Compound 7]	5.78	4.58
CC(C)CCC[C@@H](C)[C@H]1CC[C@H]2[C@@H]3CC=C4C[C@@H](OC(=O)CN5CCOCCOCCOCCOCC5)CC[C@]4(C)[C@H]3CC[C@]12C [Compound 4, Cholesteryl (4-aza-15-crown-5)acetate]	4.03	4.10
